# Earlier results as cited in patent publication US20200038317A1, “EXTENDED RELEASE, ABUSE DETERRENT PHARMACEUTICAL COMPOSITIONS” (SpecGX LLC, priority 2012, published 2020).
# Conditions: at 25° C.
structure (smiles),measurement,value
O=C(O)CC(O)(CC(=O)O)C(=O)O [citric acid],relative humidity at which the plasticizer deliquesces,about 75 % relative humidity
